Reference: patent US9963442B2, “Pyridones as herbicides” (E I DU PONT DE NEMOURS AND COMPANY, priority 2014, dated 2018)

How the values were obtained:
Format in all cases: in vivo
Settings in all cases: scale 0 to 100, 0 is no effect, 100 is complete control
[1] = system: Italian ryegrass (Lolium multiflorum); test: Test C preemergence
How it was run: (§1)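 Greenhouse herbicidal screen with visual scoring 13–15 days after application. Ratings run from 0 (no effect) to 100 (complete control), relative to untreated controls.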

[2] = system: giant foxtail (Setaria faberii); test: Test C preemergence
How it was run: as §1

[3] = system: johnsongrass (Sorghum halepense); test: Test C preemergence
How it was run: as §1

[4] = system: lambsquarters (Chenopodium album); test: Test C preemergence
How it was run: as §1

[5] = system: pigweed (Amaranthus retroflexus); test: Test C preemergence
How it was run: as §1

[6] = system: ragweed (common ragweed, Ambrosia elatior); test: Test C preemergence
How it was run: as §1

soybean (Glycine max) [7] = test: Test C preemergence
How it was run: as §1

[8] = system: velvetleaf (Abutilon theophrasti); test: Test C preemergence
How it was run: as §1

[9] = system: waterhemp (common waterhemp, Amaranthus rudis); test: Test C preemergence
How it was run: as §1

[10] = system: yellow nutsedge (Cyperus esculentus); test: Test C preemergence
How it was run: as §1

[11] = system: Italian ryegrass (Lolium multiflorum); test: Test C postemergence
Description: (§2) Seeds of plant species selected from blackgrass (Alopecurus myosuroides), Italian ryegrass (Lolium multiflorum), winter wheat (Triticum aestivum), galium (catchweed bedstraw, Galium aparine), corn (Zea mays), large (Lg) crabgrass (Digitaria sanguinalis), giant foxtail (Setaria faberii), johnsongrass (Sorghum halepense), lambsquarters (Chenopodium album), morningglory (Ipomoea coccinea), yellow nutsedge (Cyperus esculentus), pigweed (Amaranthus retroflexus), ragweed (common ragweed, Ambrosia elatior), soybean (Glycine max), barnyardgrass (Echinochloa crus-galli), oilseed rape (Brassica napus), waterhemp (common waterhemp, Amaranthus rudis), and velvetleaf (Abutilon theophrasti) were planted into a blend of loam soil and sand and treated preemergence with test chemicals formulated in a non-phytotoxic solvent mixture which included a surfactant. At the same time, plants selected from these crop and weed species and also chickweed (common chickweed, Stellaria media), kochia (Kochia scoparia), and wild oat (Avena fatua), were planted in pots containing Sunshine Redi-Earth® planting medium comprising spaghnum peat moss, vermiculite, starter nutrients and dolomitic limestone and treated with postemergence applications of test chemicals formulated in the same manner. Plants ranged in height from 2 to 18 cm (1- to 4-leaf stage) for postemergence treatments. Treated plants and controls were maintained in a greenhouse for 13 to 15 days, after which time all species were compared to controls and visually evaluated. Plant response ratings, summarized in Table C, are based on a scale of 0 to 100 where 0 is no effect and 100 is complete control. A dash (-) response means no test result.

[12] = system: galium (catchweed bedstraw, Galium aparine); test: Test C postemergence
Description: as §2

[13] = system: giant foxtail (Setaria faberii); test: Test C postemergence
Description: as §2

[14] = system: johnsongrass (Sorghum halepense); test: Test C postemergence
Description: as §2

kochia (Kochia scoparia) = test: Test C postemergence
Description: as §2

[15] = system: lambsquarters (Chenopodium album); test: Test C postemergence
Description: as §2

[16] = system: large (Lg) crabgrass (Digitaria sanguinalis); test: Test C postemergence
Description: as §2

[17] = system: ragweed (common ragweed, Ambrosia elatior); test: Test C postemergence
Description: as §2

soybean (Glycine max) [18] = test: Test C postemergence
Description: as §2

[19] = system: velvetleaf (Abutilon theophrasti); test: Test C postemergence
Description: as §2

[20] = system: waterhemp (common waterhemp, Amaranthus rudis); test: Test C postemergence
Description: as §2

wild oat (Avena fatua) = test: Test C postemergence
Description: as §2

[21] = system: winter wheat (Triticum aestivum); test: Test C postemergence
Description: as §2

O=c1cccc(Oc2ncc(Cl)cn2)n1-c1ccc(C(F)(F)F)cn1 [Compound 7]
Plant response rating, Ryegrass, Italian ([1]; 16 g ai/ha): 0 | Plant response rating, Ryegrass, Italian ([1]; 31 g ai/ha): 0 | Plant response rating, Ryegrass, Italian ([1]; 62 g ai/ha): 10 | Plant response rating, Ryegrass, Italian ([1]; 125 g ai/ha): 30 | Plant response rating, Foxtail, Giant ([2]; 16 g ai/ha): 25 | Plant response rating, Foxtail, Giant ([2]; 31 g ai/ha): 60 | Plant response rating, Foxtail, Giant ([2]; 62 g ai/ha): 85 | Plant response rating, Foxtail, Giant ([2]; 125 g ai/ha): 98 | Plant response rating, Johnsongrass ([3]; 16 g ai/ha): 0 | Plant response rating, Johnsongrass ([3]; 31 g ai/ha): 0 | Plant response rating, Johnsongrass ([3]; 62 g ai/ha): 10 | Plant response rating, Johnsongrass ([3]; 125 g ai/ha): 20 | Plant response rating, Lambsquarters ([4]; 16 g ai/ha): 15 | Plant response rating, Lambsquarters ([4]; 31 g ai/ha): 40 | Plant response rating, Lambsquarters ([4]; 62 g ai/ha): 75 | Plant response rating, Lambsquarters ([4]; 125 g ai/ha): 75 | Plant response rating, Pigweed ([5]; 16 g ai/ha): 20 | Plant response rating, Pigweed ([5]; 31 g ai/ha): 100 | Plant response rating, Pigweed ([5]; 62 g ai/ha): 100 | Plant response rating, Pigweed ([5]; 125 g ai/ha): 100 | Plant response rating, Ragweed ([6]; 16 g ai/ha): 35 | Plant response rating, Ragweed ([6]; 31 g ai/ha): 45 | Plant response rating, Ragweed ([6]; 62 g ai/ha): 50 | Plant response rating, Ragweed ([6]; 125 g ai/ha): 40 | Plant response rating, Soybean (soybean (Glycine max) [7]; 16 g ai/ha): 10 | Plant response rating, Soybean (soybean (Glycine max) [7]; 62 g ai/ha): 15 | Plant response rating, Soybean (soybean (Glycine max) [7]; 125 g ai/ha): 50 | Plant response rating, Velvetleaf ([8]; 16 g ai/ha): 5 | Plant response rating, Velvetleaf ([8]; 31 g ai/ha): 10 | Plant response rating, Velvetleaf ([8]; 62 g ai/ha): 35 | Plant response rating, Velvetleaf ([8]; 125 g ai/ha): 55 | Plant response rating, Waterhemp ([9]; 16 g ai/ha): 85 | Plant response rating, Waterhemp ([9]; 31 g ai/ha): 85 | Plant response rating, Waterhemp ([9]; 62 g ai/ha): 100 | Plant response rating, Waterhemp ([9]; 125 g ai/ha): 100 | Plant response rating, Nutsedge, Yellow ([10]; 16 g ai/ha): 0 | Plant response rating, Nutsedge, Yellow ([10]; 31 g ai/ha): 0 | Plant response rating, Nutsedge, Yellow ([10]; 62 g ai/ha): 0 | Plant response rating, Nutsedge, Yellow ([10]; 125 g ai/ha): 15 | Plant response rating, Ryegrass, Italian ([11]; 16 g ai/ha): 0 | Plant response rating, Ryegrass, Italian ([11]; 31 g ai/ha): 5 | Plant response rating, Ryegrass, Italian ([11]; 62 g ai/ha): 5 | Plant response rating, Ryegrass, Italian ([11]; 125 g ai/ha): 10 | Plant response rating, Galium ([12]; 16 g ai/ha): 45 | Plant response rating, Galium ([12]; 31 g ai/ha): 50 | Plant response rating, Galium ([12]; 62 g ai/ha): 60 | Plant response rating, Galium ([12]; 125 g ai/ha): 75 | Plant response rating, Foxtail, Giant ([13]; 16 g ai/ha): 10 | Plant response rating, Foxtail, Giant ([13]; 31 g ai/ha): 10 | Plant response rating, Foxtail, Giant ([13]; 62 g ai/ha): 15 | Plant response rating, Foxtail, Giant ([13]; 125 g ai/ha): 20 | Plant response rating, Johnsongrass ([14]; 16 g ai/ha): 5 | Plant response rating, Johnsongrass ([14]; 31 g ai/ha): 5 | Plant response rating, Johnsongrass ([14]; 62 g ai/ha): 10 | Plant response rating, Johnsongrass ([14]; 125 g ai/ha): 10 | Plant response rating, Kochia (kochia (Kochia scoparia); 16 g ai/ha): 10 | Plant response rating, Kochia (kochia (Kochia scoparia); 31 g ai/ha): 50 | Plant response rating, Kochia (kochia (Kochia scoparia); 62 g ai/ha): 70 | Plant response rating, Kochia (kochia (Kochia scoparia); 125 g ai/ha): 85 | Plant response rating, Lambsquarters ([15]; 16 g ai/ha): 25 | Plant response rating, Lambsquarters ([15]; 31 g ai/ha): 65 | Plant response rating, Lambsquarters ([15]; 62 g ai/ha): 65 | Plant response rating, Lambsquarters ([15]; 125 g ai/ha): 75 | Plant response rating, Crabgrass, Large ([16]; 16 g ai/ha): 10 | Plant response rating, Crabgrass, Large ([16]; 31 g ai/ha): 10 | Plant response rating, Crabgrass, Large ([16]; 62 g ai/ha): 15 | Plant response rating, Crabgrass, Large ([16]; 125 g ai/ha): 15 | Plant response rating, Ragweed ([17]; 16 g ai/ha): 25 | Plant response rating, Ragweed ([17]; 31 g ai/ha): 30 | Plant response rating, Ragweed ([17]; 62 g ai/ha): 35 | Plant response rating, Ragweed ([17]; 125 g ai/ha): 55 | Plant response rating, Soybean (soybean (Glycine max) [18]; 16 g ai/ha): 50 | Plant response rating, Soybean (soybean (Glycine max) [18]; 31 g ai/ha): 40 | Plant response rating, Soybean (soybean (Glycine max) [18]; 62 g ai/ha): 50 | Plant response rating, Soybean (soybean (Glycine max) [18]; 125 g ai/ha): 55 | Plant response rating, Velvetleaf ([19]; 16 g ai/ha): 25 | Plant response rating, Velvetleaf ([19]; 31 g ai/ha): 35 | Plant response rating, Velvetleaf ([19]; 62 g ai/ha): 40 | Plant response rating, Velvetleaf ([19]; 125 g ai/ha): 65 | Plant response rating, Waterhemp ([20]; 16 g ai/ha): 60 | Plant response rating, Waterhemp ([20]; 31 g ai/ha): 70 | Plant response rating, Waterhemp ([20]; 62 g ai/ha): 85 | Plant response rating, Waterhemp ([20]; 125 g ai/ha): 85 | Plant response rating, Oat, Wild (wild oat (Avena fatua); 16 g ai/ha): 0 | Plant response rating, Oat, Wild (wild oat (Avena fatua); 31 g ai/ha): 0 | Plant response rating, Oat, Wild (wild oat (Avena fatua); 62 g ai/ha): 5 | Plant response rating, Oat, Wild (wild oat (Avena fatua); 125 g ai/ha): 5 | Plant response rating, Wheat ([21]; 16 g ai/ha): 0 | Plant response rating, Wheat ([21]; 31 g ai/ha): 0 | Plant response rating, Wheat ([21]; 62 g ai/ha): 0 | Plant response rating, Wheat ([21]; 125 g ai/ha): 0
